Experimental data reported in PubChem BioAssay (NCI).
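Tested at 5 concentrations; 48 h exposure; 96-well plates; endpoints linearly interpolated, else capped at highest concentration. TGI: total growth inhibition.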

Tests used:
Experiment in all cases: NCI tumour cell line growth inhibition, 48 h
[1] = test system: HT29 colon
[2] = test system: HL-60(TB) leukemia
[3] = test system: K-562 leukemia
[4] = test system: MALME-3M melanoma
[5] = test system: MDA-MB-231 breast
[6] = test system: UO-31 renal
[7] = test system: EKVX NSCLC
[8] = test system: SF-295 CNS
[9] = test system: RPMI-8226 leukemia
[10] = test system: IGROV1 ovarian
[11] = test system: NCI/ADR-RES ovarian
[12] = test system: HCC-2998 colon
[13] = test system: LOX IMVI melanoma
[14] = test system: MDA-N
[15] = test system: SK-OV-3 ovarian
[16] = test system: SF-539 CNS
[17] = test system: HS 578T breast
[18] = test system: 786-0 renal
[19] = test system: HCT-15 colon
[20] = test system: HOP-92 NSCLC
[21] = test system: SR leukemia
[22] = test system: HCT-116 colon
[23] = test system: SK-MEL-5 melanoma
[24] = test system: NCI-H226 lung
[25] = test system: OVCAR-8 ovarian
[26] = test system: SN12C renal
[27] = test system: SW-620 colon
[28] = test system: U251 CNS
[29] = test system: SNB-19 CNS
[30] = test system: HOP-62 NSCLC
[31] = test system: UACC-257 melanoma
[32] = test system: OVCAR-5 ovarian
[33] = test system: T-47D breast
[34] = test system: ACHN renal
[35] = test system: BT-549 breast
[36] = test system: DU-145 prostate
[37] = test system: SK-MEL-28 melanoma
[38] = test system: MOLT-4 leukemia
[39] = test system: UACC-62 melanoma
[40] = test system: NCI-H460 lung
[41] = test system: OVCAR-3 ovarian
[42] = test system: RXF 393 renal
[43] = test system: NCI-H23 lung
[44] = test system: NCI-H522 lung
[45] = test system: MDA-MB-435
[46] = test system: KM12 colon
[47] = test system: OVCAR-4 ovarian
[48] = test system: CAKI-1 renal
[49] = test system: CCRF-CEM leukemia
[50] = test system: PC-3 prostate
[51] = test system: TK-10 renal
[52] = test system: SK-MEL-2 melanoma
[53] = test system: MCF7 breast
[54] = test system: A549 NSCLC
[55] = test system: A498 renal
[56] = test system: COLO 205 colon
[57] = test system: SF-268 CNS
[58] = test system: M14 melanoma

CC(O)C1(CNc2cc(Cl)nc(N)n2)CCC1 (stereo not given)
TGI [1]: > 100 µM | TGI [2]: > 100 µM | TGI [3]: > 100 µM | TGI [4]: > 100 µM | TGI [5]: > 100 µM | TGI [6]: > 100 µM | TGI [7]: > 100 µM | TGI [8]: > 100 µM | TGI [9]: > 100 µM | TGI [10]: > 100 µM | TGI [11]: > 100 µM | TGI [12]: > 100 µM | TGI [13]: > 100 µM | TGI [14]: > 100 µM | TGI [15]: > 100 µM | TGI [16]: > 100 µM | TGI [17]: > 100 µM | TGI [18]: > 100 µM | TGI [19]: > 100 µM | TGI [20]: > 100 µM | TGI [21]: > 100 µM | TGI [22]: > 100 µM | TGI [23]: > 100 µM | TGI [24]: > 100 µM | TGI [25]: > 100 µM | TGI [26]: > 100 µM | TGI [27]: > 100 µM | TGI [28]: > 100 µM | TGI [29]: > 100 µM | TGI [30]: > 100 µM | TGI [31]: > 100 µM | TGI [32]: > 100 µM | TGI [33]: > 100 µM | TGI [34]: > 100 µM | TGI [35]: > 100 µM | TGI [36]: > 100 µM | TGI [37]: > 100 µM | TGI [38]: > 100 µM | TGI [39]: > 100 µM | TGI [40]: > 100 µM | TGI [41]: > 100 µM | TGI [42]: > 100 µM | TGI [43]: > 100 µM | TGI [44]: > 100 µM | TGI [45]: > 100 µM | TGI [46]: > 100 µM | TGI [47]: > 100 µM | TGI [48]: > 100 µM | TGI [49]: > 100 µM | TGI [50]: > 100 µM | TGI [51]: > 100 µM | TGI [52]: > 100 µM | TGI [53]: > 100 µM | TGI [54]: > 100 µM

COc1cc2c(C)cc(O)cc2c2cc(O)c(C)cc12
TGI [1]: 45.8 µM | TGI [2]: 13 µM | TGI [3]: 9.94 µM | TGI [5]: 19.2 µM | TGI [6]: 19.1 µM | TGI [7]: 22.6 µM | TGI [8]: 23.8 µM | TGI [9]: 6.64 µM | TGI [10]: 29 µM | TGI [11]: 30.4 µM | TGI [55]: 21.3 µM | TGI [12]: 24.4 µM | TGI [13]: 9.22 µM | TGI [14]: 20 µM | TGI [15]: 23.8 µM | TGI [16]: 19.1 µM | TGI [56]: 19.6 µM | TGI [17]: 53.8 µM | TGI [57]: 29.6 µM | TGI [18]: 17.7 µM | TGI [19]: 17.9 µM | TGI [20]: 22.3 µM | TGI [21]: 6.18 µM | TGI [22]: 20.7 µM | TGI [23]: 20.3 µM | TGI [24]: 28.2 µM | TGI [25]: 40.2 µM | TGI [26]: 19.8 µM | TGI [27]: 19.8 µM | TGI [28]: 21.3 µM | TGI [58]: 6.67 µM | TGI [29]: 21.4 µM | TGI [30]: 15.5 µM | TGI [31]: 22.8 µM | TGI [32]: 24.3 µM | TGI [33]: 20.5 µM | TGI [34]: 22.6 µM | TGI [35]: 23 µM | TGI [36]: 20.9 µM | TGI [38]: 25.1 µM | TGI [39]: 22.3 µM | TGI [40]: 9.73 µM | TGI [41]: 22.3 µM | TGI [42]: 22.9 µM | TGI [43]: 21.5 µM | TGI [44]: 27.3 µM | TGI [45]: 19.2 µM | TGI [46]: 20.2 µM | TGI [47]: 21.9 µM | TGI [48]: 22.4 µM | TGI [49]: 18.2 µM | TGI [50]: 19 µM | TGI [51]: 23.8 µM | TGI [52]: 31.3 µM | TGI [53]: 20.5 µM | TGI [54]: 23.8 µM
